Experiments:
[1] = tested on: CD20+ B cells; test: CD19-TCB-induced B cell depletion in humanized NSG mice; format: in vivo; conditions: for CD19-TCB-induced B cell depletion in blood: co-treatment with 0.5 mg/kg CD19-TCB; for CD19-TCB-induced CD20+ B cell depletion in the spleen: 72 hrs (termination)
Excerpt: FIG. 81. In vivo experiment timelines and dosing schedule.
To best reproduce the pharmacodynamic profile of ruxolitinib, dasatinib and sirolimus in the clinic and to verify whether the resulting exposure would be sufficient to prevent CD19-TCB-induced cytokine release, dasatinib and ruxolitinib were given per os twice per day, and sirolimus was given per os twice per day on day 1 and then once per day.
At 48 hrs and 72 hrs, blood was collected by tail-vein bleeding and the CD20+ B cell count was measured by flow cytometry (FIGS. 82A and B) to assess the effect of the different treatments on CD19-TCB-induced B cell depletion. […] Its half-life being around 6-7 hrs and dasatinib being given only twice per day, a lack of exposure could likely explain that CD19-TCB was partially active, resulting in B cell depletion. At experiment termination (72 hrs), spleens were collected and the B cell count was measured by flow-cytometry (FIG. 83). […] However, their inhibitory effect was stronger than methylprednisolone (FIG. 83).

[2] = tested on: CD20-TCB-induced cytokine release; test: CD20-TCB-induced cytokine release in non-tumor bearing humanized NSG mice (serum, Luminex); format: in vivo; conditions: serum 4 hours and 24 hours after CD20-TCB; ruxolitinib 30 to 60 mg/kg
Experimental: FIG. 95. In vivo experiment timelines and dosing schedule.
Different doses of mTOR, JAK and Src kinase inhibitors were tested to determine the optimal dose that reduces CD20-TCB-induced cytokine release while minimally interfering with B cell depletion. […] The doses of 30 and 60 mg/kg were tested for ruxolitinib and the doses of 10 and 50 mg/kg were tested for dasatinib. To reproduce the clinical route of administration, the different kinase inhibitors were given orally (p.o.) once or twice per day as depicted in FIG. 95. Mice were bled 4 hours and 24 hours after the treatment with CD20-TCB (FIG. 95) to collect serum for cytokine level measurements by Luminex. Additionally, blood was collected 48 hours and 72 hours (termination) post treatment with CD20-TCB to measure the percentage of CD19+ B cells among human CD45+ cells by flow cytometry (FIG. 95).

[3] = 48 hrs, p.o.: 6×30 mg/kg ruxolitinib, 4×5 mg/kg sirolimus, dexamethasone, methylprednisolone
[4] = 72 hrs, dasatinib 6×50 mg/kg p.o.

For CO[C@H]1C[C@@H]2CC[C@@H](C)[C@@](O)(O2)C(=O)C(=O)N2CCCC[C@H]2C(=O)O[C@H]([C@H](C)C[C@@H]2CC[C@@H](O)[C@H](OC)C2)CC(=O)[C@H](C)/C=C(\C)[C@@H](O)[C@@H](OC)C(=O)[C@H](C)C[C@H](C)/C=C/C=C/C=C/1C [sirolimus, Sirolimus], which “CD19-TCB-induced B cell depletion in blood” value [1, 3] is on record?
The value was “slightly prevented”.

And the “CD19-TCB-induced CD20+ B cell depletion in the spleen” value [1]?
Its value is “only partially prevented”.

What about the “CD19-TCB-induced B cell depletion in blood” value [1, 4] of the same compound?
The value was “comparable to the effect dexamethasone”.

N#CC[C@H](C1CCCC1)n1cc(-c2ncnc3[nH]ccc23)cn1 [ruxolitinib, Ruxolitinib] was tested. Which “CD19-TCB-induced B cell depletion in blood” value [1, 3] did it give?
Its value is “slightly prevented”.

And the “CD19-TCB-induced CD20+ B cell depletion in the spleen” value [1]?
The value was “only partially prevented”.

And the “CD19-TCB-induced B cell depletion in blood” value [1, 4]?
Its value is “comparable to the effect dexamethasone”.

And the “CD20-TCB-mediated cytokine release other than IL-2 and GM-CSF” value [2]?
Its value is “durably reduced”.

Source: patent US12629419B2, “Prevention or mitigation of T-cell engaging agent-related adverse effects” (Hoffmann-La Roche Inc., priority 2020, dated 2026)
